In PubChem BioAssay (NCI):
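Cells were grown in 96-well plates and exposed to each compound for 48 hours at five concentrations; endpoints were interpolated linearly between bracketing concentrations, or set to the highest concentration if not reached. At the TGI there is no net growth.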

Tests used:
Test in all cases: NCI-60 cell line screen, 48 h
786-0 renal = system: 786-0 renal
CCRF-CEM leukemia = system: CCRF-CEM leukemia
A549 NSCLC = system: A549 NSCLC
SW-620 colon = system: SW-620 colon
COLO 205 colon = system: COLO 205 colon
SF-268 CNS = system: SF-268 CNS
SK-OV-3 ovarian = system: SK-OV-3 ovarian
HL-60(TB) leukemia = system: HL-60(TB) leukemia
MOLT-4 leukemia = system: MOLT-4 leukemia
XF 498 CNS = system: XF 498 CNS
UACC-62 melanoma = system: UACC-62 melanoma
RXF 393 renal = system: RXF 393 renal
SNB-75 CNS = system: SNB-75 CNS
U251 CNS = system: U251 CNS
RPMI-8226 leukemia = system: RPMI-8226 leukemia
NCI-H522 lung = system: NCI-H522 lung
OVCAR-3 ovarian = system: OVCAR-3 ovarian
UACC-257 melanoma = system: UACC-257 melanoma
DMS 114 small cell lung = system: DMS 114 small cell lung
CAKI-1 renal = system: CAKI-1 renal
KM20L2 colon = system: KM20L2 colon
EKVX NSCLC = system: EKVX NSCLC
SK-MEL-28 melanoma = system: SK-MEL-28 melanoma
MALME-3M melanoma = system: MALME-3M melanoma
OVCAR-8 ovarian = system: OVCAR-8 ovarian
HOP-92 NSCLC = system: HOP-92 NSCLC
ACHN renal = system: ACHN renal
SN12C renal = system: SN12C renal
LOX IMVI melanoma = system: LOX IMVI melanoma
A498 renal = system: A498 renal
M19-MEL melanoma = system: M19-MEL melanoma
M14 melanoma = system: M14 melanoma
NCI-H23 lung = system: NCI-H23 lung
SNB-19 CNS = system: SNB-19 CNS
IGROV1 ovarian = system: IGROV1 ovarian
OVCAR-4 ovarian = system: OVCAR-4 ovarian
TK-10 renal = system: TK-10 renal
K-562 leukemia = system: K-562 leukemia
SK-MEL-2 melanoma = system: SK-MEL-2 melanoma
LXFL 529 NSCLC = system: LXFL 529 NSCLC
OVCAR-5 ovarian = system: OVCAR-5 ovarian
DMS 273 small cell lung = system: DMS 273 small cell lung
HT29 colon = system: HT29 colon
SNB-78 CNS = system: SNB-78 CNS
UO-31 renal = system: UO-31 renal
NCI-H460 lung = system: NCI-H460 lung
SF-295 CNS = system: SF-295 CNS
SF-539 CNS = system: SF-539 CNS
NCI-H226 lung = system: NCI-H226 lung
HCT-15 colon = system: HCT-15 colon
HCT-116 colon = system: HCT-116 colon
HOP-62 NSCLC = system: HOP-62 NSCLC
HOP-18 NSCLC = system: HOP-18 NSCLC
DLD-1 colon = system: DLD-1 colon
SK-MEL-5 melanoma = system: SK-MEL-5 melanoma
SR leukemia = system: SR leukemia
KM12 colon = system: KM12 colon
HCC-2998 colon = system: HCC-2998 colon

## COC(=O)[C@@]12C(=O)CCC(=O)C1C1C(=CC2C)O[C@@H]2OC3(CCCCC3)O[C@H]12 (some centres not stated)
786-0 renal
  TGI: > 100 µM
CCRF-CEM leukemia
  TGI: > 81 µM
A549 NSCLC
  TGI: > 100 µM
SW-620 colon
  TGI: > 100 µM
COLO 205 colon
  TGI: > 100 µM
SF-268 CNS
  TGI: > 100 µM
SK-OV-3 ovarian
  TGI: > 100 µM
HL-60(TB) leukemia
  TGI: 59.1 µM
MOLT-4 leukemia
  TGI: 70.5 µM
XF 498 CNS
  TGI: > 93.6 µM
UACC-62 melanoma
  TGI: > 100 µM
RXF 393 renal
  TGI: > 100 µM
SNB-75 CNS
  TGI: > 100 µM
U251 CNS
  TGI: > 100 µM
RPMI-8226 leukemia
  TGI: 83.2 µM
NCI-H522 lung
  TGI: 38.1 µM
OVCAR-3 ovarian
  TGI: > 100 µM
UACC-257 melanoma
  TGI: > 100 µM
DMS 114 small cell lung
  TGI: > 100 µM
CAKI-1 renal
  TGI: > 100 µM
KM20L2 colon
  TGI: > 100 µM
EKVX NSCLC
  TGI: > 100 µM
SK-MEL-28 melanoma
  TGI: > 100 µM
MALME-3M melanoma
  TGI: > 100 µM
OVCAR-8 ovarian
  TGI: > 80.2 µM
HOP-92 NSCLC
  TGI: > 100 µM
ACHN renal
  TGI: > 100 µM
SN12C renal
  TGI: > 100 µM
LOX IMVI melanoma
  TGI: > 100 µM
A498 renal
  TGI: > 100 µM
M19-MEL melanoma
  TGI: > 100 µM
M14 melanoma
  TGI: > 100 µM
NCI-H23 lung
  TGI: > 100 µM
SNB-19 CNS
  TGI: > 100 µM
IGROV1 ovarian
  TGI: > 100 µM
OVCAR-4 ovarian
  TGI: > 100 µM
TK-10 renal
  TGI: > 100 µM
K-562 leukemia
  TGI: > 100 µM
SK-MEL-2 melanoma
  TGI: > 100 µM
LXFL 529 NSCLC
  TGI: > 100 µM
OVCAR-5 ovarian
  TGI: > 100 µM
DMS 273 small cell lung
  TGI: > 100 µM
HT29 colon
  TGI: > 100 µM
SNB-78 CNS
  TGI: > 100 µM
UO-31 renal
  TGI: > 100 µM
NCI-H460 lung
  TGI: > 100 µM
SF-295 CNS
  TGI: > 100 µM
SF-539 CNS
  TGI: > 100 µM
NCI-H226 lung
  TGI: > 100 µM
HCT-15 colon
  TGI: > 100 µM
HCT-116 colon
  TGI: > 100 µM
HOP-62 NSCLC
  TGI: > 100 µM
HOP-18 NSCLC
  TGI: > 100 µM
DLD-1 colon
  TGI: > 100 µM
SK-MEL-5 melanoma
  TGI: > 100 µM
SR leukemia
  TGI: 58.8 µM
KM12 colon
  TGI: > 100 µM
HCC-2998 colon
  TGI: > 100 µM

## O=C(NCc1ccccc1)c1cc2ccc(O)c(O)c2cn1
786-0 renal
  TGI: 33.1 µM
CCRF-CEM leukemia
  TGI: > 100 µM
A549 NSCLC
  TGI: > 100 µM
SW-620 colon
  TGI: 37.4 µM
COLO 205 colon
  TGI: > 100 µM
SF-268 CNS
  TGI: 29.7 µM
SK-OV-3 ovarian
  TGI: > 100 µM
HL-60(TB) leukemia
  TGI: > 100 µM
XF 498 CNS
  TGI: 31.7 µM
UACC-62 melanoma
  TGI: 33.5 µM
RXF 393 renal
  TGI: 30.5 µM
SNB-75 CNS
  TGI: 32.9 µM
U251 CNS
  TGI: 52.8 µM
RPMI-8226 leukemia
  TGI: > 100 µM
NCI-H522 lung
  TGI: 30.9 µM
OVCAR-3 ovarian
  TGI: 41.6 µM
UACC-257 melanoma
  TGI: 29.1 µM
DMS 114 small cell lung
  TGI: 26.8 µM
CAKI-1 renal
  TGI: 33.6 µM
KM20L2 colon
  TGI: > 100 µM
EKVX NSCLC
  TGI: > 100 µM
SK-MEL-28 melanoma
  TGI: 30.3 µM
MALME-3M melanoma
  TGI: 30.4 µM
OVCAR-8 ovarian
  TGI: 23.9 µM
HOP-92 NSCLC
  TGI: 33.3 µM
ACHN renal
  TGI: 29.4 µM
SN12C renal
  TGI: 31.7 µM
LOX IMVI melanoma
  TGI: 16.2 µM
A498 renal
  TGI: > 100 µM
M19-MEL melanoma
  TGI: 3.23 µM
M14 melanoma
  TGI: 19.3 µM
NCI-H23 lung
  TGI: 25.9 µM
SNB-19 CNS
  TGI: > 100 µM
IGROV1 ovarian
  TGI: 44.5 µM
OVCAR-4 ovarian
  TGI: 30.3 µM
TK-10 renal
  TGI: > 100 µM
K-562 leukemia
  TGI: > 100 µM
SK-MEL-2 melanoma
  TGI: 25.4 µM
LXFL 529 NSCLC
  TGI: 30.6 µM
OVCAR-5 ovarian
  TGI: 58.3 µM
DMS 273 small cell lung
  TGI: 32.3 µM
HT29 colon
  TGI: > 100 µM
SNB-78 CNS
  TGI: 40.6 µM
UO-31 renal
  TGI: 36.5 µM
NCI-H460 lung
  TGI: 39.1 µM
SF-295 CNS
  TGI: 31.5 µM
SF-539 CNS
  TGI: 32.6 µM
NCI-H226 lung
  TGI: > 100 µM
HCT-15 colon
  TGI: > 100 µM
HCT-116 colon
  TGI: 32.1 µM
HOP-62 NSCLC
  TGI: 47.9 µM
HOP-18 NSCLC
  TGI: 44.5 µM
DLD-1 colon
  TGI: 37.8 µM
SK-MEL-5 melanoma
  TGI: 23.3 µM
SR leukemia
  TGI: > 100 µM
KM12 colon
  TGI: > 100 µM
HCC-2998 colon
  TGI: > 100 µM

## CC(=O)CC(=O)Nc1ccccc1[N+](=O)[O-]
786-0 renal
  TGI: > 100 µM
CCRF-CEM leukemia
  TGI: > 100 µM
A549 NSCLC
  TGI: > 100 µM
SW-620 colon
  TGI: > 100 µM
COLO 205 colon
  TGI: > 100 µM
SF-268 CNS
  TGI: > 100 µM
SK-OV-3 ovarian
  TGI: > 100 µM
HL-60(TB) leukemia
  TGI: > 100 µM
MOLT-4 leukemia
  TGI: > 100 µM
XF 498 CNS
  TGI: > 100 µM
UACC-62 melanoma
  TGI: > 100 µM
RXF 393 renal
  TGI: > 100 µM
SNB-75 CNS
  TGI: > 100 µM
U251 CNS
  TGI: > 100 µM
RPMI-8226 leukemia
  TGI: > 100 µM
NCI-H522 lung
  TGI: > 100 µM
OVCAR-3 ovarian
  TGI: > 100 µM
UACC-257 melanoma
  TGI: > 100 µM
DMS 114 small cell lung
  TGI: > 100 µM
CAKI-1 renal
  TGI: > 100 µM
KM20L2 colon
  TGI: > 100 µM
EKVX NSCLC
  TGI: > 100 µM
SK-MEL-28 melanoma
  TGI: > 100 µM
MALME-3M melanoma
  TGI: > 100 µM
OVCAR-8 ovarian
  TGI: > 100 µM
HOP-92 NSCLC
  TGI: > 100 µM
ACHN renal
  TGI: > 100 µM
SN12C renal
  TGI: > 100 µM
A498 renal
  TGI: > 100 µM
M19-MEL melanoma
  TGI: > 100 µM
M14 melanoma
  TGI: > 100 µM
NCI-H23 lung
  TGI: > 100 µM
SNB-19 CNS
  TGI: > 100 µM
IGROV1 ovarian
  TGI: > 100 µM
OVCAR-4 ovarian
  TGI: > 100 µM
TK-10 renal
  TGI: > 100 µM
K-562 leukemia
  TGI: > 100 µM
SK-MEL-2 melanoma
  TGI: > 100 µM
LXFL 529 NSCLC
  TGI: > 100 µM
OVCAR-5 ovarian
  TGI: > 100 µM
DMS 273 small cell lung
  TGI: > 100 µM
HT29 colon
  TGI: > 100 µM
SNB-78 CNS
  TGI: > 100 µM
UO-31 renal
  TGI: > 100 µM
NCI-H460 lung
  TGI: > 100 µM
SF-295 CNS
  TGI: > 100 µM
SF-539 CNS
  TGI: > 100 µM
NCI-H226 lung
  TGI: > 100 µM
HCT-15 colon
  TGI: > 100 µM
HCT-116 colon
  TGI: > 100 µM
HOP-62 NSCLC
  TGI: > 100 µM
HOP-18 NSCLC
  TGI: > 100 µM
DLD-1 colon
  TGI: > 100 µM
SK-MEL-5 melanoma
  TGI: > 100 µM
SR leukemia
  TGI: > 100 µM
KM12 colon
  TGI: > 100 µM
HCC-2998 colon
  TGI: > 100 µM
